In patent US20180153995A1, “USE OF ANTIMICROBIAL POLYMERS FOR RE-SENSITIZATION OF MICROORGANISMS UPON EMERGENCE OF RESISTANCE TO ANTI-MICROBIAL AGENTS” (Technion Research & Development Foundation Limited, priority 2008, published 2018):
Values after ≈ are worked out from the molar mass of the structure shown. Read-outs that look alike come from different tables or passages of the source. Square brackets hold non-standard residues; d marks the D form. Peptide text beside a SMILES is read from it. 12Ado = NCCCCCCCCCCCC(=O)O

What was measured:
MRSA 15903 [1] = assay: microbe, parasite or virus in culture; assay type: cell-based, Staphylococcus aureus; conditions: for MIC, ¼ + MIC OAK: with C12K(KNC10K)3NH2 (SEQ ID NO: 10) at ¼ of its MIC; for MIC, ½ + MIC OAK: with C12K(KNC10K)3NH2 (SEQ ID NO: 10) at ½ of its MIC; for MIC, ⅓ + MIC OAK: with C12K(KNC10K)3NH2 (SEQ ID NO: 10) at ⅓ of its MIC
Experimental: (§1) The fractionary inhibitory (FIC) concentration index for combinations of two antimicrobial agents was calculated as follows: FIC index=FICA+FICB=A/MICA+B/MICB where A and B are the MIC values of agent A and agent B in the combination, MICA and MICB are the MICs of agent A and agent B alone, and FICA and FICB are the FICs of agent A and agent B.
(§2) The FIC indexes were interpreted as follows: less than 0.5 indicates a clear re-sensitizing effect; from 0.5 to 4 indicates a marginal or null re-sensitizing effect; and over 4 indicates antagonism.
Experimental data for FIG. 4 were obtained as follows.

ATCC 25923 = assay: microbe, parasite or virus in culture; assay type: cell-based, Staphylococcus aureus; conditions: ATCC 25923
Experimental: (§3) MICs were determined by microdilution susceptibility testing in 96-well plates (by Nunc) using inocula of 10^5 bacteria per ml. Cell populations were evaluated by optical density measurements at 620 nm and were calibrated against a set of standards. Hundred (100) μl of a bacterial suspension were added to 100 μl of culture medium (control) or to 100 μl of culture medium containing various polymer concentrations in 2-fold serial dilutions. Inhibition of proliferation was determined by optical density measurements at 620 nm after an incubation period of 24 hours at 37° C.

MRSA 15852 = assay type: cell-based, Staphylococcus aureus; conditions: 15852
Experimental: as §1, §2

MRSA 15903 [2] = assay: Sub-MIC time-kill curves (CFU counts); assay type: cell-based, Staphylococcus aureus; conditions: sub-MIC time-kill, single agent
Experimental: At the specified time points of incubation (37° C. under shaking), cultures were subjected to serial 10-fold dilutions (up to 10^6) by adding 50 μl of sample to 450 μl saline (0.85% NaCl). Cell counts were determined using the drop plate method (three 20-μl drops onto LB-agar plates). Plates were incubated at 37° C. and colonies were counted for the calculation after incubation for 24 hours.

ATCC 29213 = assay: microbe, parasite or virus in culture; assay type: cell-based, Staphylococcus aureus; conditions: ATCC 29213
Experimental: as §3, §1, §2

MRSA 15918 = assay: microbe, parasite or virus in culture; assay type: cell-based, Staphylococcus aureus; conditions: 15918
Experimental: as §3, §1, §2

E. coli AG100/ks = assay: Antibiotic MIC with or without sub-MIC polymer (Tables 20, 21); assay type: cell-based, Escherichia coli
E. coli D21 = assay: as above; assay type: cell-based, Escherichia coli
E. coli G11a1 = assay: as above; assay type: cell-based, Escherichia coli
Experimental: as §3

E. coli AG100 = assay: as above; assay type: cell-based, Escherichia coli
[3] = Staphylococcus aureus, MRSA, 24 h, MRSA 15903, antibiotic alone (Table 22), read-out: MIC, Alone

NCCCCCCCCCCCC(=O)N[C@@H](CCCCN)C(=O)NCCCCCCCCCCCC(=O)N[C@@H](CCCCN)C(=O)N[C@@H](CCCCN)C(=O)NCCCCCCCCCCCC(=O)N[C@@H](CCCCN)C(N)=O [NC12(KNC12K)2NH2] (H-[12Ado]K[12Ado]KK[12Ado]K-NH2)
MIC (MRSA 15903 [1]; 15903): 6.2 µM | improvement (decrease) in the polymer's MIC in presence of oxacillin (MRSA 15903 [1]; MRSA 15903, polymer + sub-MIC oxacillin): twofold | MIC of polymer (MRSA 15903 [1]; MRSA 15903, polymer alone): 6.25 µM | optimal re-sensitization polymer concentration (MRSA 15903 [1]; MRSA 15903, with oxacillin): 2.1 µM | MIC (ATCC 25923): 3.1 µM (≈ 3.48 µg/mL) | MIC (MRSA 15852): 3.1 µM | bactericidal activity, agent alone (MRSA 15903 [2]): no bactericidal activity | MIC (ATCC 29213): 3.1 µM | MIC (MRSA 15918): 6.2 µM

CC1(C)S[C@@H]2[C@H](NC(=O)[C@H](N)c3ccccc3)C(=O)N2[C@H]1C(=O)O [ampicillin]
Antibiotic MIC, None (E. coli AG100/ks; antibiotic alone (Table 20)): >512 µg/mL | Antibiotic MIC, None (E. coli AG100/ks; antibiotic alone (Table 21)): >512 µg/mL | Antibiotic MIC in presence of C12K(NC8K)5NH2 (SEQ ID NO: 3), +¼ MIC (E. coli AG100/ks; polymer at ¼ of its MIC): >512 µg/mL | Antibiotic MIC in presence of C12K(NC8K)7NH2 (SEQ ID NO: 4), +¼ MIC (E. coli AG100/ks; polymer at ¼ of its MIC): >512 µg/mL | Antibiotic MIC in presence of C12K(NC8K)5NH2 (SEQ ID NO: 3), +½ MIC (E. coli AG100/ks; polymer at ½ of its MIC): >512 µg/mL | Antibiotic MIC in presence of C12K(NC8K)7NH2 (SEQ ID NO: 4), +½ MIC (E. coli AG100/ks; polymer at ½ of its MIC): >512 µg/mL | Antibiotic MIC in presence of C12K(NC8K)5NH2 (SEQ ID NO: 3), +⅓ MIC (E. coli AG100/ks; polymer at ⅓ of its MIC): >512 µg/mL | Antibiotic MIC in presence of C12K(NC8K)7NH2 (SEQ ID NO: 4), +⅓ MIC (E. coli AG100/ks; polymer at ⅓ of its MIC): >512 µg/mL | Antibiotic MIC, None (E. coli D21; antibiotic alone (Table 20)): 64 µg/mL | Antibiotic MIC, None (E. coli D21; antibiotic alone (Table 21)): 64 µg/mL | Antibiotic MIC in presence of C12K(NC8K)5NH2 (SEQ ID NO: 3), +¼ MIC (E. coli D21; polymer at ¼ of its MIC): 64 µg/mL | Antibiotic MIC in presence of C12K(NC8K)7NH2 (SEQ ID NO: 4), +¼ MIC (E. coli D21; polymer at ¼ of its MIC): 64 µg/mL | Antibiotic MIC in presence of C12K(NC8K)5NH2 (SEQ ID NO: 3), +½ MIC (E. coli D21; polymer at ½ of its MIC): 32 µg/mL | Antibiotic MIC in presence of C12K(NC8K)7NH2 (SEQ ID NO: 4), +½ MIC (E. coli D21; polymer at ½ of its MIC): 32 µg/mL | Antibiotic MIC in presence of C12K(NC8K)5NH2 (SEQ ID NO: 3), +⅓ MIC (E. coli D21; polymer at ⅓ of its MIC): 64 µg/mL | Antibiotic MIC in presence of C12K(NC8K)7NH2 (SEQ ID NO: 4), +⅓ MIC (E. coli D21; polymer at ⅓ of its MIC): 64 µg/mL | Antibiotic MIC, None (E. coli G11a1; antibiotic alone (Table 20)): 64 µg/mL | Antibiotic MIC, None (E. coli G11a1; antibiotic alone (Table 21)): 64 µg/mL | Antibiotic MIC in presence of C12K(NC8K)5NH2 (SEQ ID NO: 3), +¼ MIC (E. coli G11a1; polymer at ¼ of its MIC): 64 µg/mL | Antibiotic MIC in presence of C12K(NC8K)7NH2 (SEQ ID NO: 4), +¼ MIC (E. coli G11a1; polymer at ¼ of its MIC): 64 µg/mL | Antibiotic MIC in presence of C12K(NC8K)5NH2 (SEQ ID NO: 3), +½ MIC (E. coli G11a1; polymer at ½ of its MIC): 32 µg/mL | Antibiotic MIC in presence of C12K(NC8K)7NH2 (SEQ ID NO: 4), +½ MIC (E. coli G11a1; polymer at ½ of its MIC): 32 µg/mL | Antibiotic MIC in presence of C12K(NC8K)5NH2 (SEQ ID NO: 3), +⅓ MIC (E. coli G11a1; polymer at ⅓ of its MIC): 64 µg/mL | Antibiotic MIC in presence of C12K(NC8K)7NH2 (SEQ ID NO: 4), +⅓ MIC (E. coli G11a1; polymer at ⅓ of its MIC): 64 µg/mL | Antibiotic MIC, None (E. coli AG100; antibiotic alone (Table 20)): 4 µg/mL | Antibiotic MIC, None (E. coli AG100; antibiotic alone (Table 21)): 4 µg/mL

Cc1nnc(SCC2=C(C(=O)O)N3C(=O)[C@@H](NC(=O)Cn4cnnn4)[C@H]3SC2)s1 [cefazolin]
MIC, ¼ + MIC OAK (MRSA 15903 [1]; MRSA 15903): 16 µg/mL | MIC, ½ + MIC OAK (MRSA 15903 [1]; MRSA 15903): 2 to 4 µg/mL | MIC, ⅓ + MIC OAK (MRSA 15903 [1]; MRSA 15903): 8 to 16 µg/mL | MIC (MRSA 15903 [1]; [3]): 16 µg/mL

CCN1CCN(C(=O)N[C@@H](C(=O)N[C@@H]2C(=O)N3C(C(=O)O)=C(CSc4nnnn4C)CS[C@H]23)c2ccc(O)cc2)C(=O)C1=O [cefoperazone]
MIC, ¼ + MIC OAK (MRSA 15903 [1]; MRSA 15903): 16 µg/mL | MIC, ½ + MIC OAK (MRSA 15903 [1]; MRSA 15903): 4 µg/mL | MIC, ⅓ + MIC OAK (MRSA 15903 [1]; MRSA 15903): 8 to 16 µg/mL | MIC (MRSA 15903 [1]; [3]): 16 µg/mL

CO/N=C(\C(=O)N[C@@H]1C(=O)N2C(C(=O)O)=C(COC(C)=O)CS[C@H]12)c1csc(N)n1 [cefotaxime]
MIC, ¼ + MIC OAK (MRSA 15903 [1]; MRSA 15903): 32 µg/mL | MIC, ½ + MIC OAK (MRSA 15903 [1]; MRSA 15903): 4 µg/mL | MIC, ⅓ + MIC OAK (MRSA 15903 [1]; MRSA 15903): 16 µg/mL | MIC (MRSA 15903 [1]; [3]): 32 µg/mL

CN[C@H](CC(C)C)C(=O)N[C@H]1C(=O)N[C@@H](CC(N)=O)C(=O)N[C@H]2C(=O)N[C@H]3C(=O)N[C@H](C(=O)N[C@H](C(=O)O)c4cc(O)cc(O)c4-c4cc3ccc4O)[C@H](O)c3ccc(c(Cl)c3)Oc3cc2cc(c3O[C@@H]2O[C@H](CO)[C@@H](O)[C@H](O)[C@H]2O[C@H]2C[C@](C)(N)[C@H](O)[C@H](C)O2)Oc2ccc(cc2Cl)[C@H]1O [vancomycin]
MIC, ¼ + MIC OAK (MRSA 15903 [1]; MRSA 15903): 1 µg/mL | MIC, ½ + MIC OAK (MRSA 15903 [1]; MRSA 15903): 1 µg/mL | MIC, ⅓ + MIC OAK (MRSA 15903 [1]; MRSA 15903): 1 µg/mL | MIC (MRSA 15903 [1]; Staphylococcus aureus, MRSA, 24 h, read-out: MIC, Alone): 1 µg/mL
